Patent US20240335544A1, “M6PR CELL SURFACE RECEPTOR BINDING COMPOUNDS AND CONJUGATES” (LYCIA THERAPEUTICS, INC., priority 2021, published 2024)
Like-named read-outs stand apart in the source and are kept apart here.

Legend:
Hep G2 cells = assay: Conjugate-mediated uptake of IgG2a into Hep G2 cells; format: cell-based, human; settings: one hour incubation, FIG. 13; 816 DAR6, 817 DAR4, 520 (I-7) DAR4
Description: The anti-IgG2a conjugates were bound to IgG2a-Alexa488, as follows: equal molar ratios of anti-IgG2a and IgG2a-Alexa488 were added in tissue culture media for 30 minutes at room temperature. The resulting anti-IgG2a:IgG2a antibody-Alexa488 compositions were added to Jurkat cells (100 k cells/50 ul per well, n=2), and Alexa488 fluorescence levels were measured (via Alexa488 measurement) at 1 hour and 24 hours by flow cytometry. As the fluorescently labelled target (IgG2a antibody) accumulates in cells, the fluorescence presents a way to measure total intracellular uptake by cells over time.
The uptake of antibody conjugates of exemplary M6PR or ASGPR binding compounds was assessed in Hep G2 cells, using a method similar to that described in Example above. […] Compounds 816 and 817 were prepared according to methods described in International Application No. PCT/US2021/012846, filed Jan. 8, 2021.

CI-M6PR [1] = biological target: T1, CI-M6PR (Homo sapiens, UniProt P11717); assay: Human CI-M6PR binding assay (ELISA); set-up: purchased R&D 6418-GR-050
Description: Nunc black solid bottom MaxiSorp plates were allowed to incubate overnight at 4° C. coated with 1 μg/mL of recombinant human CI-M6PR protein (R&D, 6418-GR-050) in 50 μL PBS. The next day, coating was decanted and plates were washed 3× with PBS. Wells were blocked with 350 μL of 3% BSA-PBS for 1 hour at room temperature. […] 50 μL of diluted conjugates were added to the plate and allowed to incubate at room temperature for 2 hours. After incubation, solutions in plate were decanted and washed with 350 μL of 0.05% PBS-Tween20 three times, drying the plate each wash on a clean paper towel. 50 μL of peroxidase AffiniPure Mouse Anti-Human IgG (Jackson Immuno, 209-035-088) diluted in 3% BSA-PBS to […] was added to the plate and allowed to incubate for 1 hour at room temperature in the dark. After incubation, solutions in plate were decanted and washed with 350 μL of 0.05% PBS-Tween20 3 times, drying the plate each wash on a clean paper towel. […] 50 μL of QuantaBlu solution was added to wells and allowed to incubate for 5-10 minutes at room temperature. After incubation, plates were read on a Perkin Elmer EnVision using photometric 340 and Umbelliferone 460 filter sets for excitation and emission, respectively. Data analysis and non-linear curve-fitting was performed using GraphPad Prism.
Target sequence in this assay (P11717 41-1365 limits assumed): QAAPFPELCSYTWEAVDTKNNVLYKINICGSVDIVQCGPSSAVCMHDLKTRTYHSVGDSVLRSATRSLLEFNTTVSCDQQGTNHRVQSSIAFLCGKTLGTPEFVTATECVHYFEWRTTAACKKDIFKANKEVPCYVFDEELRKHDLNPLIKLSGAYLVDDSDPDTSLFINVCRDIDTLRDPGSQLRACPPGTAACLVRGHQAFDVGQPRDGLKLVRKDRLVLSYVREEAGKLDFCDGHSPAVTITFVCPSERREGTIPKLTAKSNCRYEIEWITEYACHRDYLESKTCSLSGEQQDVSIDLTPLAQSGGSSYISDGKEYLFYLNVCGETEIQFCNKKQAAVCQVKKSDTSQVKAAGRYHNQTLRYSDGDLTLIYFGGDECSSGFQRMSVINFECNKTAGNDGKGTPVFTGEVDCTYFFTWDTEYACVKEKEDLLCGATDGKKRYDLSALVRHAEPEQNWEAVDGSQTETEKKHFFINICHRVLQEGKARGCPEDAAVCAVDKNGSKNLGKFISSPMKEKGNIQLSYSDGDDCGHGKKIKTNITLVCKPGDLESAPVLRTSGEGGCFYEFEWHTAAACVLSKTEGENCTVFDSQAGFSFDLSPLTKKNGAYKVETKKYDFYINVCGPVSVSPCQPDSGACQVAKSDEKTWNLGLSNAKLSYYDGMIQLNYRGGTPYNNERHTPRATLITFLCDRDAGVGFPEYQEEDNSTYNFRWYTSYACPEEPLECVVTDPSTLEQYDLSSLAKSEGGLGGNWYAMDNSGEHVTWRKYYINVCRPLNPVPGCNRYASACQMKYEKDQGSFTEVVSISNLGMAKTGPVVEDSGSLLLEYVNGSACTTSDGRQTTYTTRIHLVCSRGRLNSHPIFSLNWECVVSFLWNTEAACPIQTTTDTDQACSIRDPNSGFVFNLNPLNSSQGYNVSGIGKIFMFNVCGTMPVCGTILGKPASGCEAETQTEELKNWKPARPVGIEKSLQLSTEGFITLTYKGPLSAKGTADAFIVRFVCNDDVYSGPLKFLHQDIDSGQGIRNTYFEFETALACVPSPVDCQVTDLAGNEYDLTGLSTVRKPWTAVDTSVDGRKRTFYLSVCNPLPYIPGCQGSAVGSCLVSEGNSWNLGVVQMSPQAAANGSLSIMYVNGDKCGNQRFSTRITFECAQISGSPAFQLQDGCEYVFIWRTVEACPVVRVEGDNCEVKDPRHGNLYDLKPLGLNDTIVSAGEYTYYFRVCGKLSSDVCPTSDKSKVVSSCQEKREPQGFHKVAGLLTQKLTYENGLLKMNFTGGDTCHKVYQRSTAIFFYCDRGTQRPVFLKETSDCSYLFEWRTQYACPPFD

[2] = test system: wild type (WT) K562 cells; assay: CI-M6PR mediated uptake of Alexa488-IgE in wild type K562 cells; format: cell-based; settings: omalizumab conjugates, average loading DAR9, FIG. 14
Description: The uptake of exemplary omalizumab (anti-IgE) antibody conjugates of compound 520 (I-7) (average loading DAR9) versus exemplary compound 537 (I-66) (average loading DAR9) was assessed in wild type (WT) K562 cells and CI-M6PR knockout (KO) cells using a similar method of that described above.

CI-M6PR [3] = biological target: T1, CI-M6PR; assay: CI-M6PR SPR binding assay; settings: omalizumab conjugates at DAR of about 4
Description: The CI-M6PR binding affinities of omalizumab (anti-IgE) conjugates of Table 19 were also assessed via SPR binding assay. […] At equivalent DAR (m) values, the koff rate of the omalizumab (anti-IgE) conjugates was 552>529>570.
Target sequence in this assay (P11717 41-2491): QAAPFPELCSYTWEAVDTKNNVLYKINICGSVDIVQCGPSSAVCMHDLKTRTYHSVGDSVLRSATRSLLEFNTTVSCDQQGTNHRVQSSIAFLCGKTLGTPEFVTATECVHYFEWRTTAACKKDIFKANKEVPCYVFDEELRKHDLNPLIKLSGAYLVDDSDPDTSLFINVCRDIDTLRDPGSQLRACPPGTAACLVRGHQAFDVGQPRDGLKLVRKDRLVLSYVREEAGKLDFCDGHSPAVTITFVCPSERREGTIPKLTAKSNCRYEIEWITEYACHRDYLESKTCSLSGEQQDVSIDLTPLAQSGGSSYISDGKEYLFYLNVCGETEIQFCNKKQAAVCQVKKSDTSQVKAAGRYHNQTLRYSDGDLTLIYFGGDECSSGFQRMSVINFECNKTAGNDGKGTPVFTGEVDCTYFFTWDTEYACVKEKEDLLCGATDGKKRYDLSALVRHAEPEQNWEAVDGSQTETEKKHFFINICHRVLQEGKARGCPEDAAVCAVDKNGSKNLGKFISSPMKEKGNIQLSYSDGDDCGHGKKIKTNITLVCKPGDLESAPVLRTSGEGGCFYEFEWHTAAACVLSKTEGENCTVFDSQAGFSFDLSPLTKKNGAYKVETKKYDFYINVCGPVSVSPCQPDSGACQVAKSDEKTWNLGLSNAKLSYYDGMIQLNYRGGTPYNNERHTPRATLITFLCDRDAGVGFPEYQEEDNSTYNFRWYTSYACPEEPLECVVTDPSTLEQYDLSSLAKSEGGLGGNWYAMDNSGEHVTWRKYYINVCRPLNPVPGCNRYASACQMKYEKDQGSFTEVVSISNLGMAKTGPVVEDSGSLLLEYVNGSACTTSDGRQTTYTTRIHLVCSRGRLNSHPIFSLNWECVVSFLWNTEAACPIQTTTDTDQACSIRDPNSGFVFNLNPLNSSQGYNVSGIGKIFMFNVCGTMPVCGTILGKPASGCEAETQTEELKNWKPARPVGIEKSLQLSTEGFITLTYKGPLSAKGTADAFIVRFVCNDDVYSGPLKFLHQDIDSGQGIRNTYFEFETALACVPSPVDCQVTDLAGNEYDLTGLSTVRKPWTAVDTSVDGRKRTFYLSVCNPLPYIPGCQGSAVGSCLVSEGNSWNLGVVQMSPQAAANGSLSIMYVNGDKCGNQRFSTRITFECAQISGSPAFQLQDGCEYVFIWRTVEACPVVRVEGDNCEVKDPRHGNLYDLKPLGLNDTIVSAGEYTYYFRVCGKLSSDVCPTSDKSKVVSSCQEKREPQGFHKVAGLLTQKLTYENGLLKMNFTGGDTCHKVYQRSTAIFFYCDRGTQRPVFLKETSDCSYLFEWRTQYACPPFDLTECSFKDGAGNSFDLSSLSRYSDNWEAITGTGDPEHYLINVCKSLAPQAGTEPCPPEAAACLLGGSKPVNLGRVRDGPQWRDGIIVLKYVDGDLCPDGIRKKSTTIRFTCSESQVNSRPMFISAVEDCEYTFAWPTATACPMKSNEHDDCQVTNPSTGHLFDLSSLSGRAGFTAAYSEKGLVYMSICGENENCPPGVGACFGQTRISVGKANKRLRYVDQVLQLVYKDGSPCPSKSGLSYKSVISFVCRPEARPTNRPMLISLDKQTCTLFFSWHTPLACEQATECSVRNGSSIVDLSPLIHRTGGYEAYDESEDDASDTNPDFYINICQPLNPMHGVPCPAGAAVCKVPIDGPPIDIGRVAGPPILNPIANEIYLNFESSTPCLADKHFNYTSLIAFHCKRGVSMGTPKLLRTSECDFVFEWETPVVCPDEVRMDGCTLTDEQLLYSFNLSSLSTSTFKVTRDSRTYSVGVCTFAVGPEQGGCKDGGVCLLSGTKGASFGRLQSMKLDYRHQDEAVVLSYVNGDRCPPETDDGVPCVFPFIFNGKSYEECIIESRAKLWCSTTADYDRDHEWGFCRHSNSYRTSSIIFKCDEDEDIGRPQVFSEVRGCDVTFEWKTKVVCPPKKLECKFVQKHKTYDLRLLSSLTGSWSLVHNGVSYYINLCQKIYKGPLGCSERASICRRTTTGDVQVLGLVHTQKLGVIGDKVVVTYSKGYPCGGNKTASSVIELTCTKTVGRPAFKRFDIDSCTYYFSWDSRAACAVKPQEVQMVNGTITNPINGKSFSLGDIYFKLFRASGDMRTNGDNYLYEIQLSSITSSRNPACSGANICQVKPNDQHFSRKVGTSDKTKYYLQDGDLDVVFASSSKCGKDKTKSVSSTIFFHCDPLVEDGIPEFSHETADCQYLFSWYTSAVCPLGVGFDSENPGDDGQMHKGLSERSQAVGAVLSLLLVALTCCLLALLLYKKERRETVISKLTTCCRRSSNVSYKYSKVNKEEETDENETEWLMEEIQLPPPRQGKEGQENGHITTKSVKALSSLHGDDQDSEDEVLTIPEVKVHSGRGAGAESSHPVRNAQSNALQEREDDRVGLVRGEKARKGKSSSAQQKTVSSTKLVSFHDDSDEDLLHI

Jurkat cells = assay: Uptake of IgE-Alexa488 target by omalizumab conjugates in Jurkat cells; format: cell-based
Description: The omalizumab conjugates of Example 142 were bound to IgE-Alexa488 (prepared according to Example 144), as follows: equal molar ratios of omalizumab (anti-IgE) conjugate and IgE-Alexa488 were added in tissue culture media for 30 minutes at room temperature. The resulting anti-IgE conjugate:IgE antibody-Alexa488 compositions were added to Jurkat cells (100 k cells/50 ul per well, n=2), and Alexa488 fluorescence levels in the cells were measured at 1 hour by flow cytometry. As the fluorescently labelled target (IgE antibody) accumulates in cells, the fluorescence presents a way to measure total intracellular uptake by cells over time.

O=C(CCOCCOCCOCCOCCn1cc(CCCCNC(=S)Nc2ccc(O[C@H]3O[C@H](CCP(=O)(O)O)[C@@H](O)[C@H](O)[C@@H]3O)cc2)nn1)Oc1c(F)c(F)c(F)c(F)c1F [520 (I-7)]
uptake into HepG2 cells (Hep G2 cells): comparable HepG2 cellular uptake
EC50 (CI-M6PR [1]; Table 16B, antibody conjugate, average loading DAR 4, read-out: EC50 in M6PR binding assay): 0.41 nM
EC50 (CI-M6PR [1]; Table 16C, cetuximab (anti-EGFR) conjugate, average loading DAR 8, read-out: EC50 in M6PR binding assay): 0.41 nM
EC50 (CI-M6PR [1]; Table 16D, conjugate, m average loading DAR 2, read-out: EC50 in M6PR binding assay for conjugates of compounds of varying multivalency): 3.71 nM
EC50 (CI-M6PR [1]; Table 16D, conjugate, m average loading DAR 4, read-out: EC50 in M6PR binding assay for conjugates of compounds of varying multivalency): 0.3 nM
EC50 (CI-M6PR [1]; Table 16D, conjugate, m average loading DAR 9, read-out: EC50 in M6PR binding assay for conjugates of compounds of varying multivalency): 0.23 nM
EC50 (CI-M6PR [1]; Table 16E, conjugate, m average DAR 2, read-out: EC50 in M6PR binding assay for conjugates of monovalent compounds of varying linker length and loading): 3.71 nM
EC50 (CI-M6PR [1]; Table 16E, conjugate, m average DAR 4, read-out: EC50 in M6PR binding assay for conjugates of monovalent compounds of varying linker length and loading): 0.3 nM
EC50 (CI-M6PR [1]; Table 16E, conjugate, m average DAR 9, read-out: EC50 in M6PR binding assay for conjugates of monovalent compounds of varying linker length and loading): 0.23 nM
EC50 (CI-M6PR [1]; antibody conjugate, average loading DAR 2, read-out: EC50 (nM) in M6PR binding assay): 2.6 nM
EC50 (CI-M6PR [1]; antibody conjugate, average loading DAR 4, read-out: EC50 (nM) in M6PR binding assay): 0.22 nM
EC50 (CI-M6PR [1]; antibody conjugate, average loading DAR 9, read-out: EC50 (nM) in M6PR binding assay): 0.22 nM
binding affinity to M6PR, rank among conjugates tested (FIGS. 7A-7F) (CI-M6PR [1]; matuzumab conjugates, I-7 at d8 (DAR 8), I-11 at d4 (DAR 4)): highest
cell uptake of Alexa488-IgE target, WT K562 versus CI-M6PR KO cells [2]: CI-M6PR dependent

O=C(NCCCCc1cn(CCOCCOCCOCCOCCC(=O)Oc2c(F)c(F)c(F)c(F)c2F)nn1)Nc1ccc(S[C@@H]2O[C@H](CCP(=O)(O)O)[C@@H](O)[C@H](O)[C@@H]2O)cc1 [Compound 570]
Kd (CI-M6PR binding affinity by SPR), relative (CI-M6PR [3]): superior Kd relative to corresponding α-O (529) and α-S-glycosides (552)
relative cellular uptake activity of IgE-Alexa488, omalizumab conjugates of Table 15B (Jurkat cells; 1 hour, FIGS. 18-21): superior activity to conjugates having a α-S-glycoside configuration (552), and to a conjugate having an α-O-glycoside configuration (520 (I-7), m=8)
relative cellular uptake activity of IgE-Alexa488, omalizumab conjugates of Table 19 (Jurkat cells; FIG. 23, entire dose response range): superior activity to the corresponding conjugates of α-O-glycoside (529) and α-S-glycoside (552)
